Test results reported in patent US20240116892A1, “HETEROCYCLIC AMIDE AND UREA COMPOUNDS AS JAK2 INHIBITORS” (Ajax Therapeutics, Inc., priority 2022, published 2024).

What follows are compounds tested against JAK2 (JH1 domain-catalytic, Y1007F, Y1008F) kinase (Homo sapiens (Human), UniProt O60674, Y1007F/Y1008F) (assay: JAK2 JH1 Domain Binding Assay). Details: qPCR readout.
How it was run: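 Competitive binding format: test compound, DNA-tagged JAK2 JH1 (Y1007F/Y1008F; HEK293-expressed NFkB fusion) and ligand-coated magnetic beads incubated 1 h at room temperature. Kinase retained on beads released with 0.5 μmol/L non-biotinylated ligand, then measured by qPCR.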

Chain of JAK2 (JH1 domain-catalytic, Y1007F, Y1008F) kinase (O60674 849-1124 Y1007F/Y1008F): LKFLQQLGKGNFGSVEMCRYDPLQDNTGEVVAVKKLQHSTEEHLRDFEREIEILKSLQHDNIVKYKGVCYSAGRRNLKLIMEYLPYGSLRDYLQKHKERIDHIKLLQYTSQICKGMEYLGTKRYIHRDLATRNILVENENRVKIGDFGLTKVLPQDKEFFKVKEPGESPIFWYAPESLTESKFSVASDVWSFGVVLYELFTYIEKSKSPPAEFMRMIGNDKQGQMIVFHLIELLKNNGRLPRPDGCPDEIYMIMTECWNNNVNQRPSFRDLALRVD

SMILES | Kd
C[C@@H]1C[C@H](N(C)C(=O)Nc2cc(C(C)(C)C)n([C@H]3C[C@H](O)C3)n2)CCN1c1cnc2[nH]ncc2c1 [Example I-135-a, 3-(5-(tert-butyl)-1-((1r,3R)-3-hydroxycyclobutyl)-1H-pyrazol-3-yl)-1-methyl-1-((2R,4R)-2-methyl-1-(1H-pyrazolo[3,4-b]pyridin-5-yl)piperidin-4-yl)urea] | 0.01 to 0.05 µM
C[C@H]1C[C@@H](N(C)C(=O)Nc2cc(C(C)(C)C)n([C@H]3C[C@H](O)C3)n2)CCN1c1cnc2[nH]ncc2c1 [Example I-135-b, 3-(5-(tert-butyl)-1-((1r,3S)-3-hydroxycyclobutyl)-1H-pyrazol-3-yl)-1-methyl-1-((2S,4S)-2-methyl-1-(1H-pyrazolo[3,4-b]pyridin-5-yl)piperidin-4-yl)urea] | 0.05 to 1 µM
COc1n[nH]c2ncc(N3CCC(N(C)C(=O)Nc4cc(C5CC5)cn([C@H]5CCCOC5)c4=O)CC3)cc12 [Example I-136-a, (S)-3-(5-cyclopropyl-2-oxo-1-(tetrahydro-2H-pyran-3-yl)-1,2-dihydropyridin-3-yl)-1-(1-(3-methoxy-1H-pyrazolo[3,4-b]pyridin-5-yl)piperidin-4-yl)-1-methylurea] | < 0.01 µM
COc1n[nH]c2ncc(N3CCC(N(C)C(=O)Nc4cc(C5CC5)cn([C@@H]5CCCOC5)c4=O)CC3)cc12 [Example I-136-b, (R)-3-(5-cyclopropyl-2-oxo-1-(tetrahydro-2H-pyran-3-yl)-1,2-dihydropyridin-3-yl)-1-(1-(3-methoxy-1H-pyrazolo[3,4-b]pyridin-5-yl)piperidin-4-yl)-1-methylurea] | < 0.01 µM
COc1cc(NC(=O)C2CC2)ncc1N1CCC(N(C)C(=O)Nc2cc(C(F)(F)F)cn(C)c2=O)CC1 [Example I-137, N-(4-methoxy-5-(4-(1-methyl-3-(1-methyl-2-oxo-5-(trifluoromethyl)-1,2-dihydropyridin-3-yl)ureido)piperidin-1-yl)pyridin-2-yl)cyclopropanecarboxamide] | 0.01 to 0.05 µM
COc1n[nH]c2ncc(N3CCC(N(C)C(=O)Nc4cc(C(F)(F)F)ccn4)CC3)cc12 [Example I-138, 1-(1-(3-methoxy-1H-pyrazolo[3,4-b]pyridin-5-yl)piperidin-4-yl)-1-methyl-3-(4-(trifluoromethyl)pyridin-2-yl)urea] | < 0.01 µM
COc1n[nH]c2ncc(N3CCC(N(C)C(=O)Nc4cncc(C(F)(F)F)c4)CC3)cc12 [Example I-139, 1-(1-(3-methoxy-1H-pyrazolo[3,4-b]pyridin-5-yl)piperidin-4-yl)-1-methyl-3-(5-(trifluoromethyl)pyridin-3-yl)urea] | < 0.01 µM
CC(=O)Nc1cnc(C2=CC[C@@H](N(C)C(=O)Nc3cc(C(F)(F)F)cn(C)c3=O)CC2)cn1 [Example I-140-a, (S)—N-(5-(4-(1-methyl-3-(1-methyl-2-oxo-5-(trifluoromethyl)-1,2-dihydropyridin-3-yl)ureido)cyclohex-1-en-1-yl)pyrazin-2-yl)acetamide] | < 0.01 µM
CC(=O)Nc1cnc(C2=CC[C@H](N(C)C(=O)Nc3cc(C(F)(F)F)cn(C)c3=O)CC2)cn1 [Example I-140-b, (R)—N-(5-(4-(1-methyl-3-(1-methyl-2-oxo-5-(trifluoromethyl)-1,2-dihydropyridin-3-yl)ureido)cyclohex-1-en-1-yl)pyrazin-2-yl)acetamide] | < 0.01 µM
Cn1cc(C(F)(F)F)cc(NC(=O)N(C)[C@H]2CC[C@@H](c3cnc4[nH]cc(N5CCOCC5)c4n3)CC2)c1=O [Example I-142, cis-1-methyl-3-(1-methyl-2-oxo-5-(trifluoromethyl)-1,2-dihydropyridin-3-yl)-1-(4-(7-morpholino-5H-pyrrolo[2,3-b]pyrazin-2-yl)cyclohexyl)urea] | 0.05 to 1 µM
CNc1c[nH]c2ncc([C@H]3CC[C@H](N(C)C(=O)Nc4cc(C(F)(F)F)cn(C)c4=O)CC3)nc12 [Example I-144, trans-1-methyl-3-(1-methyl-2-oxo-5-(trifluoromethyl)-1,2-dihydropyridin-3-yl)-1-(4-(7-(methylamino)-5H-pyrrolo[2,3-b]pyrazin-2-yl)cyclohexyl)urea] | < 0.01 µM
CNc1c[nH]c2ncc([C@H]3CC[C@@H](N(C)C(=O)Nc4cc(C(F)(F)F)cn(C)c4=O)CC3)nc12 [Example I-145, 1-methyl-3-(1-methyl-2-oxo-5-(trifluoromethyl)-1,2-dihydropyridin-3-yl)-1-((1s,4s)-4-(7-(methylamino)-5H-pyrrolo[2,3-b]pyrazin-2-yl)cyclohexyl)urea] | < 0.01 µM
Cn1cc(C(F)(F)F)cc(NC(=O)N2CCO[C@H]3CN(c4cnc(NC(=O)C5CC5)cn4)CC[C@@H]32)c1=O [Example I-148-a, ((4aS,8aS)-6-(5-(cyclopropanecarboxamido)pyrazin-2-yl)-N-(1-methyl-2-oxo-5-(trifluoromethyl)-1,2-dihydropyridin-3-yl)octahydro-1H-pyrido[3,4-b][1,4]oxazine-1-carboxamide and (4aR,8aR)-6-(5-(cyclopropanecarboxamido)pyrazin-2-yl)-N-(1-methyl-2-oxo-5-(trifluoromethyl)-1,2-dihydropyridin-3-yl)octahydro-1H-pyrido[3,4-b][1,4]oxazine-1-carboxamide] | < 0.01 µM
COc1c[nH]c2ncc(N3CC[C@H](N(C)C(=O)Nc4cc(C(F)(F)F)cn(C)c4=O)[C@@H](F)C3)nc12 [Example I-149, 1-((3S,4S)-3-fluoro-1-(7-methoxy-5H-pyrrolo[2,3-b]pyrazin-2-yl)piperidin-4-yl)-1-methyl-3-(1-methyl-2-oxo-5-(trifluoromethyl)-1,2-dihydropyridin-3-yl)urea] | < 0.01 µM
COc1c[nH]c2ncc(N3CC[C@@H](N(C)C(=O)Nc4cc(C(F)(F)F)cn(C)c4=O)[C@H](F)C3)nc12 [Example I-150, 1-((3R,4R)-3-fluoro-1-(7-methoxy-5H-pyrrolo[2,3-b]pyrazin-2-yl)piperidin-4-yl)-1-methyl-3-(1-methyl-2-oxo-5-(trifluoromethyl)-1,2-dihydropyridin-3-yl)urea] | < 0.01 µM
COc1c[nH]c2ncc(N3CC[C@H](N(C)C(=O)Nc4cc(C(F)(F)F)cn(C)c4=O)[C@H](F)C3)nc12 [Example I-151, 1-((3R,4S)-3-fluoro-1-(7-methoxy-5H-pyrrolo[2,3-b]pyrazin-2-yl)piperidin-4-yl)-1-methyl-3-(1-methyl-2-oxo-5-(trifluoromethyl)-1,2-dihydropyridin-3-yl)urea] | < 0.01 µM
COc1c[nH]c2ncc(N3CC[C@@H](N(C)C(=O)Nc4cc(C(F)(F)F)cn(C)c4=O)[C@@H](F)C3)nc12 [Example I-152, 1-((3S,4R)-3-fluoro-1-(7-methoxy-5H-pyrrolo[2,3-b]pyrazin-2-yl)piperidin-4-yl)-1-methyl-3-(1-methyl-2-oxo-5-(trifluoromethyl)-1,2-dihydropyridin-3-yl)urea] | < 0.01 µM
[2H]C1([2H])C[C@@H](N(C)C(=O)Nc2cc(C(F)(F)F)cn(C)c2=O)[C@H](OC)C([2H])([2H])N1c1cnc2[nH]ncc2c1 [Example I-153-a, 1-((3R,4R)-3-methoxy-1-(1H-pyrazolo[3,4-b]pyridin-5-yl)piperidin-4-yl-2,2,6,6-d4)-1-methyl-3-(1-methyl-2-oxo-5-(trifluoromethyl)-1,2-dihydropyridin-3-yl)urea] | < 0.01 µM
[2H]C1([2H])C[C@H](N(C)C(=O)Nc2cc(C(F)(F)F)cn(C)c2=O)[C@@H](OC)C([2H])([2H])N1c1cnc2[nH]ncc2c1 [Example I-153-b, 1-((3S,4S)-3-methoxy-1-(1H-pyrazolo[3,4-b]pyridin-5-yl)piperidin-4-yl-2,2,6,6-d4)-1-methyl-3-(1-methyl-2-oxo-5-(trifluoromethyl)-1,2-dihydropyridin-3-yl)urea] | 0.01 to 0.05 µM
COc1n[nH]c2ncc(C34CC(N(C)C(=O)Nc5cc(C(F)(F)F)cn(C)c5=O)(C3)C4)cc12 [Example I-156, 1-(3-(3-methoxy-1H-pyrazolo[3,4-b]pyridin-5-yl)bicyclo[1.1.1]pentan-1-yl)-1-methyl-3-(1-methyl-2-oxo-5-(trifluoromethyl)-1,2-dihydropyridin-3-yl)urea] | < 0.01 µM
COCCOc1n[nH]c2ncc(C34CC(N(C)C(=O)Nc5cc(C(F)(F)F)cn(C)c5=O)(C3)C4)cc12 [Example I-157, 1-(3-(3-(2-methoxyethoxy)-1H-pyrazolo[3,4-b]pyridin-5-yl)bicyclo[1.1.1]pentan-1-yl)-1-methyl-3-(1-methyl-2-oxo-5-(trifluoromethyl)-1,2-dihydropyridin-3-yl)urea] | < 0.01 µM
CN(C(=O)Nc1cc(C(F)(F)F)cn(C)c1=O)C12CC(c3cnc4[nH]nc(OC[C@H]5COCCO5)c4c3)(C1)C2 [Example I-158, (R)-1-(3-(3-((1,4-dioxan-2-yl)methoxy)-1H-pyrazolo[3,4-b]pyridin-5-yl)bicyclo[1.1.1]pentan-1-yl)-1-methyl-3-(1-methyl-2-oxo-5-(trifluoromethyl)-1,2-dihydropyridin-3-yl)urea] | < 0.01 µM
COCc1cc2nc(N3CC[C@H](N(C)C(=O)Nc4cc(C(F)(F)F)cn(C)c4=O)[C@H](C)C3)cnc2[nH]1 [Example I-159-a, 1-((3R,4S)-1-(6-(methoxymethyl)-5H-pyrrolo[2,3-b]pyrazin-2-yl)-3-methylpiperidin-4-yl)-1-methyl-3-(1-methyl-2-oxo-5-(trifluoromethyl)-1,2-dihydropyridin-3-yl)urea] | < 0.01 µM
COCc1cc2nc(N3CC[C@@H](N(C)C(=O)Nc4cc(C(F)(F)F)cn(C)c4=O)[C@@H](C)C3)cnc2[nH]1 [Example I-159-b, 1-((3S,4R)-1-(6-(methoxymethyl)-5H-pyrrolo[2,3-b]pyrazin-2-yl)-3-methylpiperidin-4-yl)-1-methyl-3-(1-methyl-2-oxo-5-(trifluoromethyl)-1,2-dihydropyridin-3-yl)urea] | < 0.01 µM
COc1c[nH]c2ncc(N3CC[C@H](N(C)C(=O)Nc4cc(C(F)(F)F)cn(C)c4=O)C[C@@H]3C)nc12 [Example I-161-a, 1-((2S,4S)-1-(7-methoxy-5H-pyrrolo[2,3-b]pyrazin-2-yl)-2-methylpiperidin-4-yl)-1-methyl-3-(1-methyl-2-oxo-5-(trifluoromethyl)-1,2-dihydropyridin-3-yl)urea] | 0.05 to 1 µM
